Laboratory results as given in PMC2840032, “Discovery of Fragment Molecules That Bind the Human Peroxiredoxin 5 Active Site” (PLoS ONE, 2010).

Columns and labels:
human PRDX5 [1] = molecular target: T1, human PRDX5 (Homo sapiens, UniProt P30044); test: NMR screening: STD factor (f STD) of fragments with PRDX5; format: binding; settings: for f STD: F152 compared with D3; for STD factor (f STD): Figure 2, relative degree of saturation normalized to that of F090
T1 construct: 6xHis (N); made in house; host or cells: E. coli strain M15 (pRep4)
T1 sequence (P30044 53-214): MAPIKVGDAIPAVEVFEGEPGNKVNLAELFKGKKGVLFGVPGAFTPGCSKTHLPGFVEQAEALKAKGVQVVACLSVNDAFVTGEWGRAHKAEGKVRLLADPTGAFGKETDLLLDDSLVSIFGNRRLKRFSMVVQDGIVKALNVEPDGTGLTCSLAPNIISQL
Procedure: All spectra were acquired at 20°C with a Varian Inova 600 MHz NMR spectrometer, equipped with a standard 5 mm triple-resonance inverse probe with a z-axis field gradient, actively shielded, and with an autosampler robot. The NMR samples were prepared with a robot TECAN Miniprep 60. For 175 fragments, 32 NMR tubes were prepared with 20 µM of the reduced protein and 600 µM fragments. For 25 fragments (6 NMR samples) that were not soluble at 600 µM in water, the final concentration in the NMR tube was set to 200 µM. All samples contained 1 mM DTT. […] Control 1D ^1H spectra preceded all experiments to assess the purity and stability of the fragments. NMR screening was achieved using 1D STD [30] and Waterlogsy experiments. The parameters used were the same as previously described. All NMR spectra were processed with the Varian VnmrJ software.
(§1) KD values were determined by fitting the plot of [L]tot vs. f STD as previously published.

human PRDX5 [2] = molecular target: T1, human PRDX5; test: Thioredoxin peroxidase activity inhibition assay; format: biochemical; settings: 0–600 µM
Procedure: Inhibition of thioredoxin peroxidase activity was assayed using thioredoxin peroxidase assay in a 96-well plate reader essentially as described by Kim et al. [48] and Theys et al. [49]. Briefly, the spectrometric assay was performed in a 160 µl reaction mixture containing 500 µM NADPH, 4 µM recombinant S.cerevisiae thioredoxin, 2 µM recombinant S.cervisiae thioredoxin reductase, 0.6 µM human recombinant PRDX5 and increasing concentrations (0 to 6 mM) of fragments (from stock solutions in DMSO) in PBS 0.1M (pH 7.4). The reaction was initiated by adding H2O2 at the final concentration of 100 µM. NADPH oxidation was monitored by following absorbance at 340 nm for 30 min at 37°C. The initial rate of reaction was calculated using the linear portion of the curve and was expressed as the amount of NADPH oxidized per min. The IC50 was calculated with the percentage of remaining thioredoxin peroxidase activity. Measurements were performed in quadruplicates.

[3] = Solubility in water / in the assay; format: physicochemical; settings: for solubility in water: for KD measurement by STD titration; for solubility in the assay: thioredoxin peroxidase inhibition assay
Text: We previously designed a small generalist library of 60 fragments and used it to elaborate an inhibitor of the Creatine kinase protein [27], based on the identification of an initial fragment by NMR screening. Here, the library was enlarged and contains 200 fragments that correspond to small commercial compounds with physicochemical properties defined by the rule of three. The 140 newly added fragments were chosen so as to enhance the diversity of the library in terms of size, shape and chemical functionalities. […] Waterlogsy experiments were recorded to detect possible aggregation as LOGSY effects are characteristic of high molecular weight compounds in water. When the molecules were not soluble at 600 µM, solutions were tested at 200 µM. If not soluble, the molecules were rejected from the selection. Then, to optimize the experimental time and to reduce the protein quantity required for the NMR screening experiments, fragments were pulled into mixtures of 3 to 6 molecules with minimum spectral overlap. NMR spectra of the mixtures were recorded after 3 months to confirm the absence of degradation of the compounds.
The compounds of the library were chosen from Aldrich or Acros online catalogs with SHAPES-like criteria [40]–[42] and had to fit the rule of three. Aqueous solubility was checked for all compounds by recording ^1H 1D NMR spectrum and Waterlogsy spectrum, [43]. 110 mM stock solutions of the library compounds were prepared in DMSO-d 6 and conserved at −20°C. ^1H 1D NMR spectrum were recorded to check that no degradation occurs over 3 months. Compounds were mixed by 3 to 6 to decrease the NMR experimental time as well as the protein quantity. Criteria for the compound selection for the mixtures were the absence of overlapping resonances in the 1D NMR spectra. The library contained 200 validated fragments.

human PRDX5 [4] = molecular target: T1, human PRDX5; test: KD measurements by STD factor variation upon titration; format: binding
Procedure: as §1

STD factor (f STD) (human PRDX5 [1])	solubility in water [3]	SMILES	also measured
–	–	Cc1ccc(O)c(O)c1 [D3, 4-methyl-catechol]	f STD (human PRDX5 [1]): 66%
42	too low	Oc1cccc2[nH]c3ccccc3c12 [F069]	–
69	too low	O=C(c1ccccc1)c1ccc(O)cc1O [F082]	–
100	–	Oc1ccccc1Cc1ccccc1O [F090, bis-(2-hydroxyphenyl)-methan]	Kd (human PRDX5 [4]; STD titration, reduced PRDX5, read-out: dissociation constant KD): 1200 ± 400 µM; ligand efficiency (human PRDX5 [4]; free energy of binding divided by the number of heavy atoms): 1.76 kJ/mol; solubility in the assay [3]: insufficient solubility
76	too low	Oc1ccc(-c2ccc(O)cc2)cc1 [F093]	solubility in the assay [3]: insufficient solubility
32	–	Oc1ccccc1O [F152, catechol]	f STD (human PRDX5 [1]): 32%

SMILES	STD factor (f STD) (human PRDX5 [1])	solubility in water [3]	also measured
Oc1ccccc1-c1ccccc1 [F012]	88	too low	inhibitory activity on thioredoxin peroxidase activity (human PRDX5 [2]): no inhibitory activity
